Measured values from patent publication US11459338B2, “Heterocyclic compounds as PRMT5 inhibitors” (JUBILANT EPISCRIBE LLC, priority 2018, dated 2022).
Where two headings read alike, the source gives them in different places.

What was measured:
[1] = system: Z-138 cells; experiment: Z-138 long term proliferation assay (Cell Titer Glo); format: cell-based; conditions: Homo sapiens; for GI50: 192 h, Z-138 cells, cell viability, day 8, read-out: PRMT5 Z138 GI50 Day 8 μM; for IC50: Z-138, 192 h, summary of Table 1, read-out: IC50 value (all the three assays): Z138 GI50 Day 8
Outline: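 Z-138 cells exposed to ten-point 3-fold dilutions (top 10 μM, 0.3% DMSO) for 96 h at 37° C., 5% CO2, then re-dosed for four more days.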

[2] = molecular target: T1, PRMT5/MEP50 (Homo sapiens, UniProt O14744); experiment: PRMT5/MEP50 enzyme assay on peptide substrates (3H-SAM Flashplate); format: biochemical; conditions: PRMT5/MEP50 10 nM, H4 1-15aa peptide 100 nM, 3H-SAM 1 μM
T1 construct: Full-length human PRMT5 (NP_006100)

[3] = system: Symmetric di-methyl arginine in Z-138 cells; experiment: Z-138 methylation assay, ELISA for detection of symmetric di-methyl arginine; format: cell-based; conditions: Homo sapiens
Procedure: General reagents. […] Iscove's Modified Dulbecco's Medium (IMDM), Horse serum, penicillin-streptomycin, PBS and TMB-ELISA substrate solution were purchased from ThermoFisher Scientific. Symmetric di-methyl arginine antibody was purchased from Cell Signaling Technologies.Anti-SNRPD3/SmD3 antibody was purchased from Sigma-Aldrich.
ELISA for detection of Symmetric di-methyl arginine. […] A compound source plate was prepared by performing ten-point 3-fold dilution in DMSO, such that the final top concentration of the compound was 10 μM, and DMSO was 0.3%. The total volume of compounds added was 20 μL. The cells were incubated for 96 h at 37° C., 5% CO2. Z-138 cells were directly lysed in media with 3× Lysis Buffer (1×: 10 mM HEPES pH7.9, 5 mM MgCl2, 1M NaCl, 0.25M Sucrose, 1% Triton X-100, 1 mM PMSF, Protease & Phosphatase inhibitors). […] Plates were incubated at room temperature for a minimum of 3 h and then washed with PBS-Tween 20 (0.05%). The plates were blocked with 5% BSA at room temperature for 1 h, washed with PBS-Tween 20 and incubated with primary antibody at 4 C overnight.

[4] = Z-138, 96 h, summary of Table 1, read-out: IC50 value (all the three assays): Z138 SDMA ELISA Day 4
[5] = Z-138 cells, 96 h (day 4), read-out: PRMT5 Z138 SDMA ELISA Day 4 μM

T1 sequence (O14744 whole entry): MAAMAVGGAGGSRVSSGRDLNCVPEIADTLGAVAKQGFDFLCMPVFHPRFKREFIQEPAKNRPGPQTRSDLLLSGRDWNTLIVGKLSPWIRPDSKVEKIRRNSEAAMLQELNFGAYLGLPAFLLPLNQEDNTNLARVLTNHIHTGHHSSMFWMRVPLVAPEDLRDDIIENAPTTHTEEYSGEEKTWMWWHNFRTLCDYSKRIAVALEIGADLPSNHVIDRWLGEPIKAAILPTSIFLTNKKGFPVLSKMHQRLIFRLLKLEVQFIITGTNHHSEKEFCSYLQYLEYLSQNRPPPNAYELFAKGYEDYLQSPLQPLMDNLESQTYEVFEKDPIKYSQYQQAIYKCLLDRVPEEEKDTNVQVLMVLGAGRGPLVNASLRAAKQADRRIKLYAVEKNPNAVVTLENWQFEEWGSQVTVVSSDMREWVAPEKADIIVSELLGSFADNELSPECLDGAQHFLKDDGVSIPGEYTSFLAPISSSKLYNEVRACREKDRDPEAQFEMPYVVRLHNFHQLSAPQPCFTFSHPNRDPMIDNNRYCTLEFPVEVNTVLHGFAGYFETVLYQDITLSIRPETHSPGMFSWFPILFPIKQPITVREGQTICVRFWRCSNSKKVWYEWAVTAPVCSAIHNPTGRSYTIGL
T1 sequence (Q9BQA1 whole entry partner): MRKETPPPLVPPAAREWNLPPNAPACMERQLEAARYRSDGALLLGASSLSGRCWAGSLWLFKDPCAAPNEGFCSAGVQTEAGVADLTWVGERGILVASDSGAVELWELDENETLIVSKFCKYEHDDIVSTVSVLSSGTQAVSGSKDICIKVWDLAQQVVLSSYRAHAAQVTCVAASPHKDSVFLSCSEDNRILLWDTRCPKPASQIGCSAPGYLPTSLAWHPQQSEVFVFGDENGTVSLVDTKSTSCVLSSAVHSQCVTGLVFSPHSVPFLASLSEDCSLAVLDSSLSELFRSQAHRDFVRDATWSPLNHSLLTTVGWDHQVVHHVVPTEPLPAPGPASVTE

| Structure (SMILES) | IC50 [2] | IC50 [3, 4] | IC50 [3, 5] | GI50 [1] | IC50 [1] |
| --- | --- | --- | --- | --- | --- |
| O=C(NCC(O)CN1CCc2ccccc2C1)c1cn2cc(C(F)(F)F)ccc2n1 (stereo not drawn) [Example 1, N-(3-(3,4-dihydroisoquinolin-2(1H)-yl)-2-hydroxypropyl)-6-(trifluoromethyl)imidazo[1,2-a]pyridine-2-carboxamide] | 10 to 1000 nM | 10 to 1000 nM | 10 to 1000 nM | 10 to 1000 nM | 10 to 1000 nM |
| CO[C@@H]1CCc2nc(C(=O)NC[C@H](O)CN3CCc4ccccc4C3)cn2C1 [Example 107A, (R)—N—((S)-3-(3,4-dihydroisoquinolin-2(1H)-yl)-2-hydroxypropyl)-6-methoxy-5,6,7,8-tetrahydroimidazo[1,2-a]pyridine-2-carboxamide] | > 5000 nM | – | 10 to 1000 nM | 1000 to 5000 nM | – |
| O=C(NC[C@H](O)CN1CCc2ccccc2C1)c1cn2c(n1)CCC(C1CC1)C2 (stereo partly drawn) [Example 104, 6-cyclopropyl-N—((S)-3-(3,4-dihydroisoquinolin-2(1H)-yl)-2-hydroxypropyl)-5,6,7,8-tetrahydroimidazo[1,2-a]pyridine-2-carboxamide] | – | – | 10 to 1000 nM | 1000 to 5000 nM | – |
| O=C(NCC(O)CN1CCc2ccccc2C1)c1cn2cc(-c3ccc(F)cc3)ccc2n1 (stereo not drawn) [Example 11, N-(3-(3,4-dihydroisoquinolin-2(1H)-yl)-2-hydroxypropyl)-6-(4-fluorophenyl) imidazo[1,2-a]pyridine-2-carboxamide] | 10 to 1000 nM | 10 to 1000 nM | 10 to 1000 nM | 10 to 1000 nM | 10 to 1000 nM |
| Cc1nc(-c2ccc3nc(C(=O)NC[C@H](O)CN4CCc5ccccc5C4)cn3c2)no1 [Example 6, (S)—N-(3-(3,4-dihydroisoquinolin-2(1H)-yl)-2-hydroxypropyl)-6-(5-methyl-1,2,4-oxadiazol-3-yl)imidazo[1,2-a]pyridine-2-carboxamide] | 10 to 1000 nM | 10 to 1000 nM | 10 to 1000 nM | 10 to 1000 nM | 10 to 1000 nM |
| Cn1cc(C2CCc3nc(C(=O)NCC(O)CN4CCc5ccccc5C4)cn3C2)cn1 (stereo not drawn) [Example 111, N-(3-(3,4-dihydroisoquinolin-2(1H)-yl)-2-hydroxypropyl)-6-(1-methyl-1H-pyrazol-4-yl)-5,6,7,8-tetrahydroimidazo[1,2-a]pyridine-2-carboxamide] | 1000 to 5000 nM | – | 10 to 1000 nM | 1000 to 5000 nM | – |
| O=C(NC[C@H](O)CN1CCc2ccccc2C1)c1cn2cc(C(F)(F)F)ccc2n1 [Example 8, (S)—N-(3-(3,4-dihydroisoquinolin-2(1H)-yl)-2-hydroxypropyl)-6(trifluoromethyl) imidazo[1,2-a]pyridine-2-carboxamide] | 10 to 1000 nM | 10 to 1000 nM | 10 to 1000 nM | 10 to 1000 nM | 10 to 1000 nM |
| Cn1cc(-c2ccc3nc(C(=O)NC[C@H](O)CN4CCc5ccccc5C4)cn3c2)cn1 [Example 13, (S)—N-(3-(3,4-dihydroisoquinolin-2(1H)-yl)-2-hydroxypropyl)-6-(1-methyl-1H-pyrazol-4-yl)imidazo[1,2-a]pyridine-2-carboxamide] | > 5000 nM | – | 10 to 1000 nM | > 5000 nM | – |
| O=C(NC[C@H](O)CN1CCc2ccccc2C1)c1cn2c(n1)CC[C@H](C(F)(F)F)C2 [Example 121B, (S)—N—((S)-3-(3,4-dihydroisoquinolin-2(1H)-yl)-2-hydroxypropyl)-6-(trifluoromethyl)-5,6,7,8-tetrahydroimidazo[1,2-a]pyridine-2-carboxamide] | 1000 to 5000 nM | – | 10 to 1000 nM | 10 to 1000 nM | – |
| O=C(NC[C@H](O)CN1CCc2ccccc2C1)c1cn2c(n1)COC(c1ccc(F)cc1)C2 (stereo partly drawn) [Example 116, N—((S)-3-(3,4-dihydroisoquinolin-2(1H)-yl)-2-hydroxypropyl)-6-(4-fluorophenyl)-5,6-dihydro-8H-imidazo[2,1-c][1,4]oxazine-2-carboxamide] | 10 to 1000 nM | 10 to 1000 nM | 10 to 1000 nM | 10 to 1000 nM | 10 to 1000 nM |
| Cn1ccc(-c2cn3cc(C(=O)NC[C@H](O)CN4CCc5ccccc5C4)nc3cn2)cc1=O [Example 47, (S)—N-(3-(3,4-dihydroisoquinolin-2(1H)-yl)-2-hydroxypropyl)-6-(1-methyl-2-oxo-1,2-dihydropyridin-4-yl)imidazo[1,2-a]pyrazine-2-carboxamide] | 10 to 1000 nM | 10 to 1000 nM | 10 to 1000 nM | 10 to 1000 nM | 10 to 1000 nM |
| CCCC1CCn2cc(C(=O)NCC(O)CN3CCc4ccccc4C3)nc2C1 (stereo not drawn) [Example 105, N-(3-(3,4-dihydroisoquinolin-2(1H)-yl)-2-hydroxypropyl)-7-propyl-5,6,7,8 tetrahydroimidazo[1,2-a]pyridine-2-carboxamide] | – | – | 10 to 1000 nM | 1000 to 5000 nM | – |

Continued, in another order:

| IC50 [2] | IC50 [3, 4] | IC50 [3, 5] | Structure (SMILES) | GI50 [1] | IC50 [1] |
| --- | --- | --- | --- | --- | --- |
| 10 to 1000 nM | 10 to 1000 nM | 10 to 1000 nM | O=C(NC[C@H](O)CN1CCc2ccccc2C1)c1cn2cc(C3=CCOCC3)ccc2n1 [Example 19, (S)-6-(3,6-dihydro-2H-pyran-4-yl)-N-(3-(3,4-dihydroisoquinolin-2(1H)-yl)-2-hydroxypropyl)imidazo[1,2-a]pyridine-2-carboxamide] | 10 to 1000 nM | 10 to 1000 nM |
| 10 to 1000 nM | – | 10 to 1000 nM | O=C(NC[C@H](O)CN1CCc2ccccc2C1)c1cn2cc(C(F)(F)F)cnc2n1 [Example 42] | 1000 to 5000 nM | – |
| 10 to 1000 nM | 10 to 1000 nM | 10 to 1000 nM | O=C(NC[C@H](O)CN1CCc2ccccc2C1)c1cn2cc(-c3cnn([C@@H]4CCOC4)c3)ccc2n1 [Example 20, N—((S)-3-(3,4-dihydroisoquinolin-2(1H)-yl)-2-hydroxypropyl)-6-(1-((R)-tetrahydrofuran-3-yl)-1H-pyrazol-4-yl)imidazo[1,2-a]pyridine-2-carboxamide] | 10 to 1000 nM | 10 to 1000 nM |
| 10 to 1000 nM | – | 10 to 1000 nM | CC(=O)Nc1ccc2nc(C(=O)NC[C@H](O)CN3CCc4ccccc4C3)cn2c1 [Example 39, (S)-6-acetamido-N-(3-(3,4-dihydroisoquinolin-2(1H)-yl)-2-hydroxypropyl)imidazo[1,2-a]pyridine-2-carboxamide] | 1000 to 5000 nM | – |
| 1000 to 5000 nM | – | 10 to 1000 nM | O=C(NC(CO)CCN1CCc2ccccc2C1)c1cn2cc(C(F)(F)F)ccc2n1 (stereo not drawn) [Example 100, N-(4-(3,4-dihydroisoquinolin-2(1H)-yl)-1-hydroxybutan-2-yl)-6-(trifluoromethyl)imidazo[1,2-a]pyridine-2-carboxamide] | 1000 to 5000 nM | – |
| 10 to 1000 nM | 10 to 1000 nM | 10 to 1000 nM | Cn1cc(-c2cn3cc(C(=O)NC[C@H](O)CN4CCc5ccccc5C4)nc3cn2)cn1 [Example 45, (S)—N-(3-(3,4-dihydroisoquinolin-2(1H)-yl)-2-hydroxypropyl)-6-(1-methyl-1H-pyrazol-4-yl)imidazo[1,2-a]pyrazine-2-carboxamide] | 10 to 1000 nM | 10 to 1000 nM |
| 10 to 1000 nM | 10 to 1000 nM | 10 to 1000 nM | Cn1ccc(-c2ccc3nc(C(=O)NC[C@H](O)CN4CCc5ccccc5C4)cn3n2)cc1=O [Example 48, (S)—N-(3-(3,4-dihydroisoquinolin-2(1H)-yl)-2-hydroxypropyl)-6-(1-methyl-2-oxo-1,2-dihydropyridin-4-yl)imidazo[1,2-b]pyridazine-2-carboxamide] | 10 to 1000 nM | 10 to 1000 nM |
